Key:
[1] = system: 22Rv1 cells; test: Soft agar colony formation assay; assay type: cell-based, Human; settings: p = 0.001
Description: (§1) The CytoSelectTM 96-well In Vitro Tumor Sensitivity Assay Kit was used to perform the colony formation assay to detect anchorage-independent growth (Cell Biolabs, Inc., San Diego, CA, USA). LNCaP, C4-2B, and 22Rv1 cells (5 × 10^3 cells) that had been exposed to either the vehicle or SBI-46 were harvested and used for the assay following the manufacturer’s instructions. Colonies were manually counted after being stained with 0.005% crystal violet after ten days.

[2] = system: LNCaP cells; test: Soft agar colony formation assay; assay type: cell-based, Human; settings: p = 0.001
Description: as §1

[3] = target: T1, HDAC6 (Homo sapiens, UniProt Q9UBN7); test: HDAC inhibition, fluorescence-based assay (BPS Bioscience); assay type: biochemical; settings: HDAC6 versus HDAC1
T1 construct: purchased BPS Bioscience (contract research organization that ran the assay)
T1 sequence (Q9UBN7 1-1215): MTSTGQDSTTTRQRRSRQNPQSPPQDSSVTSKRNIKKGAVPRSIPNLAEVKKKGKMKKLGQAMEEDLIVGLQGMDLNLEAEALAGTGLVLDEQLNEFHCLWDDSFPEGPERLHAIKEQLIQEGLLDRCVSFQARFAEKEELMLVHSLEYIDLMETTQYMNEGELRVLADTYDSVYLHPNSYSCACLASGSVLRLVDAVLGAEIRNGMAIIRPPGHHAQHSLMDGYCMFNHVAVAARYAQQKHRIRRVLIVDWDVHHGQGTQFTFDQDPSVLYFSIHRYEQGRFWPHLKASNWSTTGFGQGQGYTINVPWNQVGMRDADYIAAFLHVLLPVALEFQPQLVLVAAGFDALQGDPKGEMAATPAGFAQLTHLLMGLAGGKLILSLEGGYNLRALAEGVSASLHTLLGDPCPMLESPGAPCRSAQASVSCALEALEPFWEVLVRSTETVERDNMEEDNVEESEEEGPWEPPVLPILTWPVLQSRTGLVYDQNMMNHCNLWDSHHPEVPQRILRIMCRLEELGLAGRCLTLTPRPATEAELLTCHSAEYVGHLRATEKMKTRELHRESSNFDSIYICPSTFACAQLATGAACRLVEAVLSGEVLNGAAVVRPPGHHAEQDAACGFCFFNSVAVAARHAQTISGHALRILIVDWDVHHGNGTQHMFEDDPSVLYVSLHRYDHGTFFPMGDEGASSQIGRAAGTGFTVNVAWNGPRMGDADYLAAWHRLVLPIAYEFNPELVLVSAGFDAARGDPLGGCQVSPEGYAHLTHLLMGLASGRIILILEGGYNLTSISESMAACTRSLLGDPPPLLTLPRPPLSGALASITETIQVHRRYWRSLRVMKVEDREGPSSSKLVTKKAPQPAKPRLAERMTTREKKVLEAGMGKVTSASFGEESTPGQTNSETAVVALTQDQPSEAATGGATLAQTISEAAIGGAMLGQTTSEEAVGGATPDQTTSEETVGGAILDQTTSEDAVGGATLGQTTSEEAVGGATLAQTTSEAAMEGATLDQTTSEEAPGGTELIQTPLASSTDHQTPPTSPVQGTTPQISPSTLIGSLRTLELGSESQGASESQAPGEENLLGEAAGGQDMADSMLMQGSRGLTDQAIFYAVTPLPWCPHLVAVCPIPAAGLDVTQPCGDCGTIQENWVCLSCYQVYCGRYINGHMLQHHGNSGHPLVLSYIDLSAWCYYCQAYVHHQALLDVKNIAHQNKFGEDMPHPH
Protocol: In vitro HDAC inhibition was performed by the contract research organization (CRO) BPS Bioscience while an AR-binding assay was performed by Eurofins Panlabs. (St. Charles, MO, USA). These assays were performed through contract agreements with these CROs.

[4] = system: AR-FL, AR-V7 and PSA expression in CRPC cells; test: Western blot of AR-FL, AR-V7 and PSA expression; assay type: cell-based, Human
[5] = system: C4-2B cells; test: Soft agar colony formation assay; assay type: cell-based, human; settings: p = 0.001
Description: as §1

[6] = system: RWPE-1 cells; assay type: cell-based
Protocol: (§2) The effect of the treatments on prostate cancer and normal prostate epithelial cells’ (LNCaP, 22Rv1, C4-2B, PC3, and RWPE1) viability was evaluated using the Alamar blue assay. Cells were seeded into 96-well plates, and after growing to 60–75% confluency, they were treated with vehicle control (DMSO, Sigma Aldrich, St. Louis, MO, USA) or various concentrations of SBI-46 in respective media for 24 h. At the termination of exposure, cells were incubated with 100 μL of 3% Alamar Blue solution in a complete growth medium at 37 °C for 2 h. Absorbance was measured, and data were analyzed following the manufacturer’s instructions (Life Technologies Corporation, Eugene, OR, USA).

[7] = system: acetylated H4 and tubulin in LNCaP cells; test: Western blot of H4 and tubulin acetylation (intracellular HDAC inhibition); assay type: cell-based, Human; settings: 0.5 and 5 µM, 6 h
Protocol: To probe H4 and tubulin acetylation status, LNCaP cells were seeded into a 6-well plate at 1 × 10^6/well in RPMI for 24–48 h until the confluency reached 80%. […] Cells were treated for 6 h and scraped out of the well. The cells were washed with cold PBS three times and lysed with RIPA buffer (110 μL) (VWR, VWRVN653—100 mL) containing phosphatase inhibitor (Fisher Thermo, A32957, Waltham, MA, USA) and protease inhibitor (Fisher Thermo, A32955). The cell lysates were vortexed for 15 s, followed by sonication for 90 s. The lysates were then centrifuged at 14,000 rpm for 10 min, and the supernatants were collected. The total protein concentration was determined using a BCA protein assay kit (BioVision, K813-2500, Milpitas, CA, USA). Based on the results from the BCA assay, the lysates were diluted to make an equal protein concentration, and 20 μg of each lysate was loaded to each well of the TGX MIDI 4–20% gel (Biorad, cat. 5671093, Hercules, CA, USA) and ran at 150 V for 70 min. […]

[8] = system: C4-2B cells; test: Annexin V-FITC / PI apoptosis assay; assay type: cell-based, human; settings: p = 0.01
Description: As previously described, apoptosis was detected using the annexin V-fluorescein isothiocyanate (FITC) versus propidium iodide (PI) assay (FITC Annexin V Apoptosis Detection Kit I, BD Pharminogen).

[9] = system: C4-2B cells; test: Cell viability, Alamar blue assay; assay type: cell-based; settings: Homo sapiens; treated for 24 h; read-out: growth inhibition IC50, C4-2B
Protocol: as §2

[10] = system: 22Rv1 cells; test: Cell viability, Alamar blue assay; assay type: cell-based; settings: Homo sapiens, treated for 24 h, read-out: growth inhibition IC50, 22Rv1
Protocol: as §2

[11] = system: LNCaP cells; test: Cell viability, Alamar blue assay; assay type: cell-based; settings: Homo sapiens, treated for 24 h, read-out: growth inhibition IC50, LNCaP
Protocol: as §2

[12] = system: PC-3 cells; test: Cell viability, Alamar blue assay; assay type: cell-based; settings: treated for 24 h
Protocol: as §2

[13] = system: 22Rv1 xenograft tumors; test: Subcutaneous xenograft study in nude mice; assay type: in vivo; settings: 20 mg/kg b.w. orally, five days/week for four weeks
Protocol: (§3) All animals were maintained in germ-free environments, and the study was carried out per IACUC guidelines that the University of Louisville authorized. Athymic nude Balb/c mice (nu/nu) were obtained from The Jackson Laboratory at 6 weeks of age. C4-2B and 22Rv1 cells (1–1.5 × 10^6, approximately) were injected into separate flanks of the mice (n = 6) for subcutaneous tumor xenograft studies using a final volume of 100 μL of phosphate-buffered saline and Matrigel (1:1). Once the tumors reached ~50–100 mm^3, the mice were randomly divided into two groups; one group received a vehicle and the other groups received SB1-46 (20 mg/kg) orally for […] for 4 weeks. Mice were monitored twice weekly, and tumor volumes were measured once a week.
(§4) Finally, in a nude mice model, we evaluated the efficacy of orally administered SBI-46 in xenograft tumors from 22Rv1 and C4-2B cells. Athymic BALB/c nude mice were subcutaneously injected with 22Rv1 and C4-2B (1 × 10^6 cells), and when the tumors reached 50–100 mm^3, either the vehicle or SBI-46 (20 mg/kg b.w.) were given orally for five days/week for four weeks.

[14] = system: C4-2B xenograft tumors; test: Subcutaneous xenograft study in nude mice; assay type: in vivo; settings: 20 mg/kg b.w. orally, five days/week for four weeks
Protocol: as §3, §4

[15] = system: VERO cells; test: cells; assay type: cell-based
Protocol: (§5) Human PCa cells (LNCaP and 22Rv1) and normal prostate epithelial (RWPE-1) and kidney (HEK-293 and VERO) cells were obtained from American […] (ATCC, Manassas, VA, USA). C4-2B was obtained from the ViroMed Laboratories (Minneapolis, MN). The cells were grown on a specified medium previously described. Dihydrotestosterone (DHT) (1 nM) (Cerilliant, TX, USA) studies were performed in phenol red-free RPMI1640 supplemented with 10% charcoal-stripped FBS (Gemini, West Sacramento, CA, USA).

[16] = system: HEK-293 cells; test: cells; assay type: cell-based
Protocol: as §5

[17] = Toxicity observation in xenograft study; assay type: in vivo; settings: xenograft nude mice, 20 mg/kg orally
Protocol: as §3
It has been reported that the inhibition of AR-mediated survival signaling by small molecules results in either cell cycle arrest or the induction of apoptosis in CRPC cells. Our studies also observed the induction of pro-apoptotic machinery and concomitant downregulation of pro-survival signaling in SBI-46-treated CRPC cells.

SMILES: CC1(C)C(=O)N(c2ccc(C#N)c(C(F)(F)F)c2)C(=O)N1Cc1ccc(-c2cn(CCCCCCCC(=O)NO)nn2)cc1F [SBI-46]
- colony-forming ability, 22Rv1 [1]: reduced the colony-forming ability
- colony-forming ability, LNCaP [2]: reduced the colony-forming ability
- selectivity for HDAC6 [3]: ~ 4 fold
- expressions of AR-FL and AR-V7 [4]: downregulated
- colony-forming ability, C4-2B [5]: reduced the colony-forming ability
- toxicity in normal prostate epithelial cell line RWPE-1 [6]: no significant toxicity
- acetylation status of H4 and α-tubulin [7]: dose-dependent upregulation of acetylated H4 and tubulin
- induction of apoptosis (annexin V-FITC staining) [8]: 18%
- IC50 [9]: 480 nM
- IC50 [10]: 560 nM
- IC50 [11]: 500 nM
- effect on viability of AR-null PC-3 cells [12]: not effective
- tumor volume and weight, 22Rv1 xenograft [13]: significant decrease
- tumor volume and weight, C4-2B xenograft [14]: significant decrease
- toxicity in kidney cell line VERO [15]: no significant toxicity
- IC50 ([15]; Chlorocebus sabaeus, Vero, Figure 1B): 40 ± 4.57 µM
- toxicity in kidney cell line HEK-293 [16]: no significant toxicity
- IC50 ([16]; Homo sapiens, HEK293, Figure 1B): 16.4 ± 2.22 µM
- toxicity in vivo, gross pathological examination of vital organs [17]: not toxic

— publication PMC10046692 (Cancers, 2023)
